# In patent publication US10759785B2, “Compounds” (ENTERPRISE THERAPEUTICS LIMITED, priority 2016, dated 2020):
# Structures can show the parent of a compound that is named as a salt.
# Biological target: T1, ENaC (Homo sapiens, UniProt P37088+P51168+P51170)
# T1 construct: host or cells: primary human bronchial epithelial cells (HBECs) differentiated at an air-liquid interface
# T1 sequence (P37088 1-669): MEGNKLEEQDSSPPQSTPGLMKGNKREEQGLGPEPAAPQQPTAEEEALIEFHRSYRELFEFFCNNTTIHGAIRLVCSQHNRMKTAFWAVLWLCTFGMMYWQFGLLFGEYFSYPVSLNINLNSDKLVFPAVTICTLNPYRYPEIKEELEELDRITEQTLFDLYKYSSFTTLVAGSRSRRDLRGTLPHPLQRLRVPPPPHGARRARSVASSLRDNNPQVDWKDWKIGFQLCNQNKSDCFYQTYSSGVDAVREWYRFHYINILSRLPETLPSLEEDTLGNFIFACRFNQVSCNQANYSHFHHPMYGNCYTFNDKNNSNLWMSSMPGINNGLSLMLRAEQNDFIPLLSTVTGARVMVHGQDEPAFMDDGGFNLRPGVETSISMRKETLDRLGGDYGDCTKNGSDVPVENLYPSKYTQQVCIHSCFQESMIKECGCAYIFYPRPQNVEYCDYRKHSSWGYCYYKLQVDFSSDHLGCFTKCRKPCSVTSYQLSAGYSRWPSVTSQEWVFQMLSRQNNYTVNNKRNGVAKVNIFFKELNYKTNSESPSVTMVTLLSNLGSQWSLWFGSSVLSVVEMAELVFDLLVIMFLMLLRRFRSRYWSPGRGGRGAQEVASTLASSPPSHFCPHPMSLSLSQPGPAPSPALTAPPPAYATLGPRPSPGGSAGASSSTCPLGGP
# T1 sequence (P51168 1-640): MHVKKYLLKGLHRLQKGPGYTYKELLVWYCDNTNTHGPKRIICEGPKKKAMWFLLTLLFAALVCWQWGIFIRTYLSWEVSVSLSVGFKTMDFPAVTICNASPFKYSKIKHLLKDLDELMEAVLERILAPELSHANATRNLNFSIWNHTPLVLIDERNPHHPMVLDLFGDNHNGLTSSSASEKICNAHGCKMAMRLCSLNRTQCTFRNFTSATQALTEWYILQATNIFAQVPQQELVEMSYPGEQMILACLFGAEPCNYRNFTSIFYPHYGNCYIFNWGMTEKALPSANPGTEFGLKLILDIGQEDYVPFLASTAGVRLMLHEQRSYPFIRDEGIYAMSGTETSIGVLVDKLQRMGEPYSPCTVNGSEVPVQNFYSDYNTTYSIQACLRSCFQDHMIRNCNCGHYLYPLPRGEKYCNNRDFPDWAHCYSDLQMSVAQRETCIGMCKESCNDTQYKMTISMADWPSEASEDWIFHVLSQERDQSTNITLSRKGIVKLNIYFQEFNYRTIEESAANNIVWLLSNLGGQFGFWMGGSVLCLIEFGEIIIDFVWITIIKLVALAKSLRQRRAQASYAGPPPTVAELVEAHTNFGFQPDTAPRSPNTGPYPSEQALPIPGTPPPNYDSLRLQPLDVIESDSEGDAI
# T1 sequence (P51170 1-649): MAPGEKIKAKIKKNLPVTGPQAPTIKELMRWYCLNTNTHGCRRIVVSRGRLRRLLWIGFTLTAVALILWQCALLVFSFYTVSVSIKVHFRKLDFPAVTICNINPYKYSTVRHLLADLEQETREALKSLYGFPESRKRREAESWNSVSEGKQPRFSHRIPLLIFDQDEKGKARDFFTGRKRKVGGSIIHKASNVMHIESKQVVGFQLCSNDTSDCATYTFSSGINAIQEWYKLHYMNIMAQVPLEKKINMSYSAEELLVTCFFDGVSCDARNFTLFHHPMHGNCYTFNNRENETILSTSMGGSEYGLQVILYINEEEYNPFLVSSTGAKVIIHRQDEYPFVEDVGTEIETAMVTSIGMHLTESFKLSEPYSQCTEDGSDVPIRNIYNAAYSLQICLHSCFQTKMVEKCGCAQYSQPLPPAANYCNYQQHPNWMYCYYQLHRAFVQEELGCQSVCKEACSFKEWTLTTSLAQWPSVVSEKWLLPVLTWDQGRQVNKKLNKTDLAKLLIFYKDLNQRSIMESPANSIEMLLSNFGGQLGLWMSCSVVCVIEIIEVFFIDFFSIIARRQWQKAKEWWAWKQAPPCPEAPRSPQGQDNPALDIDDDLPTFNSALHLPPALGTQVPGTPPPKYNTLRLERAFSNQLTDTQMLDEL
# Assay: Short circuit current assay to determine ENaC blocker potency in human bronchial epithelial cells
# Assay type: cell-based
# Conditions: 50% inhibition of total amiloride-sensitive ISC, HBECs, apical addition; read-out: Averages. ENaC Ic50 μm Avg
# Description: Example 27—Short Circuit Current Assay to Determine ENaC Blocker Potency in Human Bronchial Epithelial Cells
# Human bronchial epithelial cells (HBECs) (Lonza, UK) were cultured using a modification of the method described by Coote et al, (2008). Cells were seeded into plastic T-75 flasks and grown in Bronchial Epithelial Cell Growth Medium (BEGM) (Lonza, UK) supplemented with bovine pituitary extract (52 ng/mL), hydrocortisone (0.5 μg/mL), human recombinant Epidermal Growth Factor (0.5 ng/mL), epinephrine (0.5 ng/mL), transferrin (10 ng/mL), insulin (5 ng/mL), retinoic acid (0.1 ng/mL), triiodothyronine (6.5 ng/mL), gentamycin (50 μg/mL) and amphotericin-B (50 ng/mL). Medium was changed every 48 hours until cells were 90% confluent. Cells were then passaged and seeded (8.25×10^5 cells/insert) onto polycarbonate Snapwell™ inserts (Costar, UK) in differentiation media containing 50% DMEM in BGEM with the same supplements as above but without triiodothyronine and a final retinoic acid concentration of 50 nM (all-trans retinoic acid; Sigma-Aldrich, UK). Cells were maintained submerged for the first 7 days in culture after which time they were exposed to an apical air interface for the remainder of the culture period. From the first day of establishment of an ALI, HBEC were fed with a DMEM:HAMS F-12 (1:1) media containing 2% Ultroser G (Pall BioSepra, France) with gentamycin (50 μg/mL) and amphotericin B (50 ng/mL). Cells were used for short-circuit current assay between days 14-21 after the establishment of the ALI. At all stages of culture, cells were maintained at 37′C in 5% CO2 in an air incubator.
# Short-Circuit Current (ISC) Measurements
# Snapwell inserts were mounted in Costar Vertical Diffusion Chambers (Costar, UK) and were bathed with continuously gassed Ringer solution (5% CO2 in O2; pH 7.4) maintained at 37° C. containing (in mM): 120 NaCl, 25 NaHCO3, 3.3 KH2PO4, 0.8 K2HPO4, 1.2 CaCl2, 1.2 MgCl2 and 10 glucose. The solution osmolarity was always between 280-300 mOsm/kg H2O for all physiological salt solutions used. Cells were voltage clamped to 0 mV (model EVC4000, WPI). Transepithelial resistance (RT) was measured by applying a 2 mV pulse at 30 s intervals and calculating RT by Ohm's law. Data were recorded using a PowerLab workstation (ADInstruments, UK).
# ENaC blocker compounds were added to the apical chamber from a 1000-fold stock solution (prepared in DMSO) to achieve a cumulative concentration response in terms of the inhibition of the basal ISC. At the completion of the concentration response, a supra-maximal concentration of amiloride (10 μM) was added. The concentration of test compound that induced a 50% inhibition of the total amiloride-sensitive ISC (IC50) was calculated using GraphPad Prism v6.05.
row,IC50,SMILES
1,4 nM,"CCn1c(CNC(=O)c2nc(Br)cnc2N)[n+](CC)c2ccc(C(=O)N[C@H]3CCOC3=O)cc21 [Example 18, 2-{[(3-amino-6-bromopyrazin-2-yl)formamido]methyl}-1,3-diethyl-6-{[(3S)-2-oxooxolan-3-yl]carbamoyl}-1H-1,3-benzodiazol-3-ium formate]"
2,4 nM,"CCn1c(CNC(=O)c2nc(Br)cnc2N)[n+](Cc2ccccc2)c2ccc(C(F)(F)F)cc21.O=C[O-] [Example 19, 2-{[(3-Amino-6-bromopyrazin-2-yl)formamido]methyl}-3-benzyl-1-ethyl-6-(trifluoromethyl)-1H-1,3-benzodiazol-3-ium formate]"
3,3 nM,"CCn1c(CNC(=O)c2nc(Br)cnc2N)[n+](C)c2ccc(OC(F)(F)F)cc21.O=C[O-] [Example 14, 2-{[(3-amino-6-bromopyrazin-2-yl)formamido]methyl}-1-ethyl-3-methyl-6-(trifluoromethoxy)-1H-1,3-benzodiazol-3-ium formate]"
4,4 nM,"CCn1c(CNC(=O)c2nc(C)cnc2N)[n+](C)c2ccc(OC)cc21.[I-] [Example 7, 2-{[(3-amino-6-methylpyrazin-2-yl)formamido]methyl}-1-ethyl-6-methoxy-3-methyl-1H-1,3-benzodiazol-3-ium iodide]"
5,2 nM,"CCn1c(CNC(=O)c2nc(Br)cnc2N)[n+](CC)c2ccc(-c3cnn(C4CCN(C(=N)N)CC4)c3)cc21.O=CO.O=C[O-] [Example 22, 2-{[(3-amino-6-bromopyrazin-2-yl)formamido]methyl}-6-[1-(1-carbamimidoylpiperidin-4-yl)-1H-pyrazol-4-yl]-1,3-diethyl-1H-1,3-benzodiazol-3-ium formic acid formate]"
6,2 nM,"CCn1c(CNC(=O)c2nc(Br)cnc2N)[n+](CC)c2ccc(OCCN)cc21.Cl.[Cl-] [Example 25, 2-{[(3-Amino-6-bromopyrazin-2-yl)formamido]methyl}-6-(2-aminoethoxy)-1,3-diethyl-1H-1,3-benzodiazol-3-ium hydrochloride chloride]"
7,8 nM,"CCn1c(CNC(=O)c2nc(C#N)cnc2N)[n+](CC)c2ccc(OC)cc21 [Example 26, 2-{[(3-amino-6-cyanopyrazin-2-yl)formamido]methyl}-1,3-diethyl-6-methoxy-1H-1,3-benzodiazol-3-ium formate]"
8,2 nM,"CCn1c(CNC(=O)c2nc(Cl)cnc2N)[n+](C)c2ccc(OC)cc21.[I-] [Example 5, 2-{[(3-amino-6-chloropyrazin-2-yl)formamido]methyl}-1-ethyl-6-methoxy-3-methyl-1H-1,3-benzodiazol-3-ium iodide]"
9,19 nM,"CCn1c(CNC(=O)c2nc(Br)cnc2N)[n+](C)c2ccc(F)cc21.O=C[O-] [Example 12, 2-{[(3-amino-6-bromopyrazin-2-yl)formamido]methyl}-1-ethyl-6-fluoro-3-methyl-1H-1,3-benzodiazol-3-ium formate]"
10,1 nM,"CCn1c(CNC(=O)c2nc(Br)cnc2N)[n+](CCO)c2ccc(OC)cc21.O=C[O-] [Example 3, 2-{[(3-amino-6-bromopyrazin-2-yl)formamido]methyl}-1-ethyl-3-(2-hydroxyethyl)-6-methoxy-1H-1,3-benzodiazol-3-ium formate]"

row,SMILES,IC50
1,"CCn1c(CNC(=O)c2nc(Br)cnc2N)[n+](CC)c2ccc(OCCNC(=O)OC(C)(C)C)cc21.O=C[O-] [Example 24, 2-{[(3-amino-6-bromopyrazin-2-yl)formamido]methyl}-6-(2-{[(tert-butoxy)carbonyl]amino}ethoxy)-1,3-diethyl-1H-1,3-benzodiazol-3-ium formate]",2 nM
